What was measured:
Assay type in all cases: functional, Homo sapiens
Parameters in all cases: dose or concentration left out as unconfirmed
Colon cancer organoid [1] = assay: Optimized Dual-Glo assay to identify co-culture induced drug vulnerabilities using donated chemical probes and chemogenomics kinase set in O14 CRC organoid and F14 CAF mono and co-culture. […] Cell viability is reported both mono and co-culture models.
Colon cancer organoid [2] = assay: Optimized Dual-Glo assay to identify co-culture induced drug vulnerabilities using donated chemical probes and chemogenomics kinase set in O20 CRC organoid and F20 CAF mono and co-culture. […] Cell viability is reported both mono and co-culture models.
Colon cancer organoid [3] = assay: Optimized Dual-Glo assay to identify co-culture induced drug vulnerabilities using donated chemical probes and chemogenomics kinase set in O06 CRC organoid and F06 CAF mono and co-culture. […] Cell viability is reported both mono and co-culture models.
[4] = Culture type Co-Culture, Transduced with Lucferase2-P2A-EGFP lentivirus
[5] = Culture type Co-Culture, Transduced with Renilla-dsRed lentivirus
[6] = Culture type Mono-Culture, Transduced with Lucferase2-P2A-EGFP lentivirus
[7] = Culture type Mono-Culture, Transduced with Renilla-dsRed lentivirus

Row | SMILES | Cell Viability (Colon cancer organoid [1]; [4]) | Cell Viability (Colon cancer organoid [1]; [5]) | Cell Viability (Colon cancer organoid [1]; [6]) | Cell Viability (Colon cancer organoid [1]; [7]) | Cell Viability (Colon cancer organoid [2]; [4]) | Cell Viability (Colon cancer organoid [2]; [5]) | Cell Viability (Colon cancer organoid [2]; [6]) | Cell Viability (Colon cancer organoid [2]; [7]) | Cell Viability (Colon cancer organoid [3]; [4]) | Cell Viability (Colon cancer organoid [3]; [5]) | Cell Viability (Colon cancer organoid [3]; [6]) | Cell Viability (Colon cancer organoid [3]; [7])
1 | Cc1c(C(=O)Nc2ccc(Oc3ccnc4[nH]cc(-c5ccccc5)c34)c(F)c2)c(=O)n(-c2ccc(F)cc2)n1C | 84.4536% | 22.1268% | 155.311% | 25.4653% | 223.97% | 22.9382% | 217.145% | 43.0843% | 73.6786% | 56.2803% | 78.2312% | 39.3734%
2 | Cc1ncsc1-c1ccc(CNC(=O)[C@@H]2C[C@@H](O)CN2C(=O)[C@@H](NC(=O)CCCCNC(=O)c2ccc(-c3ccc(N4CCN(C)CC4)c(NC(=O)c4c[nH]c(=O)cc4C(F)(F)F)c3)cc2)C(C)(C)C)cc1 | 94.9121% | 103.946% | 89.8204% | 93.3904% | 171.817% | 86.697% | 106.449% | 104.541% | 81.8894% | 85.2238% | 101.813% | 95.3362%
3 | O=C(CNCc1cc2ccccc2[nH]1)N[C@H]1CC[C@@H](c2nc3ccccc3[nH]2)CC1 | 97.4401% | 97.7804% | 95.7204% | 104.778% | 100.625% | 124.153% | 84.865% | 96.1375% | 85.8975% | 91.436% | 103.293% | 98.1178%
4 | N#CN1CC[C@H](C(=O)Nc2nc3c(s2)CN(C(=O)CN=[N+]=[N-])CC3)C1 [8RK64] | 91.8118% | 102.385% | 81.5329% | 88.8457% | 67.2995% | 105.29% | 57.1131% | 75.6901% | 104.648% | 104.354% | 102.804% | 85.3904%
5 | CN(C)[C@@H]1CCN(c2cc(-c3ccccc3)nc3ccnn23)C1 [(R)-ZINC-3573] | 103.063% | 100.336% | 115.069% | 113.962% | 97.0418% | 99.7993% | 84.3174% | 93.0838% | 122.992% | 121.371% | 72.8757% | 94.4779%
6 | CN(C)[C@H]1CCN(c2cc(-c3ccccc3)nc3ccnn23)C1 [(S)-ZINC-3573] | 106.455% | 83.2705% | 93.2108% | 87.5469% | 92.3796% | 112.128% | 114.664% | 102.75% | 87.7689% | 121.05% | 76.4871% | 118.538%
7 | Cn1cncc1[C@@](O)(COc1ccc(C#N)cc1-c1ccc(OC(F)(F)F)cc1)c1ccc(C#N)cc1 [A-108] | 57.9117% | 92.8032% | 90.1674% | 97.2035% | 89.1467% | 110.638% | 65.4211% | 112.38% | 113.578% | 151.877% | 88.7228% | 108.002%
8 | CCC(=N\O)/C(C)=C/c1ccc(F)c(C)c1 [A-226] | 99.1206% | 103.384% | 109.979% | 105.569% | 93.31% | 115.263% | 126.956% | 103.634% | 127.798% | 151.161% | 120.98% | 100.434%
